Laboratory results as given in patent US20240228481A1, “NOVEL SULFONAMIDE SERIES OF QR2 INHIBITORS TO TACKLE OXIDATIVE STRESS AND COGNITIVE DECLINE” (CARMEL HAIFA UNIVERSITY ECONOMIC CORPORATION LTD., priority 2021, published 2024).
Counter-ions that a name gives are not always drawn.

What was measured:
[1] = Pharmacokinetic study, p.o. and i.v.; format: in vivo, mouse
[2] = molecular target: T1, QR2 (Homo sapiens, UniProt P16083); experiment: QR2 enzymatic activity assay (menadione/BNAH), absorbance readout at 350 nm; format: biochemical; parameters: purchased Sigma-Aldrich
T1 sequence (P16083 1-231): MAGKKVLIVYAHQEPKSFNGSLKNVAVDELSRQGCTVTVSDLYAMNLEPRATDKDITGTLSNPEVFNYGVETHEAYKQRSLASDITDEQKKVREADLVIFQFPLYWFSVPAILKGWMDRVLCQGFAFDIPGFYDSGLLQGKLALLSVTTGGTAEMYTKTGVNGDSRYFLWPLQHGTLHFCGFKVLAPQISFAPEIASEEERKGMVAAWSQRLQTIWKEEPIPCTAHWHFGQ

[3] = system: HCT116 QR2Δ cells; experiment: H2DCFDA detection of cellular ROS in HCT116 QR2Δ cells; format: cell-based, human; conditions: 20 μM, 3 h
Text: Additional details of the knockout procedure and corresponding figures have been previously published. Disruption of the NQO2 gene at positions 46 and 108 within exon 4 was done using CRISPR/Cas9 dual nickase (plasmid pSpCas9n(BB)-2A-Puro (PX462), Addgene #48141). The target sequence was selected using a CRISPR design tool (http://crispr.mit.edu/), which identified the guide sequences with the least off-targets. Vectors NQ024_46 and NQ024_108 were produced by cloning oligonucleotides corresponding to guide RNA (sgRNA) into PX462 as previously described. The vectors were then transfected into HCT 116 cells (at 70% confluence) using Lipofectamine 2000 (Life Technologies), and 24 h later 0.7 μg/mL puromycin (Alfa Aesar) was added to the media for 72 h. Cells that survived were then collected and serially diluted into 96 well plates, with puromycin supplemented media, to enable selection and expansion of plasmid containing colonies two weeks later.
The cells were harvested and resuspended in 1% clear medium (DMEM—with no phenol red, supplemented with 1% FBS, 1% L-Glutamine and 1% Penicillin-Streptomycin). […] The plate was then incubated in the dark at 37° C. for 3 h, before reading in a Tecan M200 Pro florescence microplate reader, using wavelengths Ex/Em=485 nm/535 nm.

[4] = molecular target: T1, QR2; experiment: Cellular thermal shift assay (CETSA) of QR2 in HEK293T cells; format: cell-based; parameters: endogenous in cells; host or cells: HEK293T
Protocol: The CETSA assay was performed as described (Miettinen and Björklund, 2014) with some modifications. Briefly, HEK293T cells were trypsinized (Biological Industries), washed in PBS (Sigma-Aldrich), and then suspended in PBS containing protease inhibitor cocktail (Roche). The suspended cells were then divided into two Eppendorf tubes and were treated with either: a compound or DMSO (Sigma-Aldrich) for 1 h at 37° C. under shaking. Following treatment, each sample was divided into PCR tubes (100 μL/tube) and subjected to a temperature gradient (ranging from 63 to 80° C.) for 3 minutes. Cell lysates were obtained by 3-cycles of freeze-thaw using liquid nitrogen and a thermal block set to 25° C. Samples were then centrifuged at 15,000 rpm at 4° C. for 20 min and were subsequently analyzed by western blot targeting QR2 (1:100, Santa Cruz; sc-271665). The isothermal dose response fingerprint (ITDRF) experiments were done using a constant temperature of 73° C. Band intensities were normalized to the highest concentration and superoxide dismutase 1 (SOD1) levels (1:200, Santa Cruz; sc-17767). Analysis of the results were performed according to Jafari et al., (2014) using GraphPad Prism software.
To establish direct target engagement, as well as cell membrane permeability, a cellular thermal shift assay (CETSA) was carried out (see methods), using the leading compounds YB-537, YB-800, and YB-808. Following 1 h preincubation with 5 μM of each of the compounds, or vehicle, thermal aggregation curves (Tagg) of QR2 expressed in HEK293T were measured in increasing temperatures. […] Based on the Tagg curves, the inventors selected 73° C. for isothermal dose-response fingerprint (IDTRF) experiments (FIG. 2B).

Row | Structure (SMILES) | half-life ([1]; C57BL/6J, mouse, in vivo, po, p.o. 50 mg/kg, male mice, read-out: clearance rate half-life) [h] | brain clearance half-life ([1]; acute oral dosing, mouse brain) [h] | peak concentration in brain ([1]; male, C57BL/6J, mouse, in vivo, po) [ng/g] | bioavailability ([1]; p.o. 50 mg/kg, male mice) [%] | brain clearance half-life ([1]; p.o., male mouse brain) [h] | time of peak in brain following p.o. administration ([1]; p.o., male mouse brain) [h] | IC50 [2] [µM] | baseline ROS levels [3] [AU] | thermal stability of QR2 (thermal aggregation curve) versus vehicle ([4]; 5 μM, 1 h preincubation) | EC50 ([4]; CETSA at 73° C., read-out: EC50 of QR2 stabilization (isothermal dose-response fingerprint)) [nM]
1 | Cc1ccc(-c2cn3cccc(C)c3n2)cc1S(=O)(=O)N1CCNCC1 [YB-537, 8-methyl-2-(4-methyl-3-(piperazin-1-ylsulfonyl)phenyl)imidazo[1,2-a]pyridine hydrochloride] | 1 | ~1 | 203 | 82 | 1.06 | ~1 |  |  |  | 
2 | Cc1cccn2cc(-c3cccc(S(=O)(=O)N4CCC(C)CC4)c3)nc12 [YB-800] |  |  |  |  |  |  | 0.02 | −0.009±0.049 | shifts of thermal stability | 34
